The source of these data is patent publication US20100041630A1, “Methods for Treating or Preventing Inflammation Using a Glycerophosphate Salt” (PRELIEF INC., priority 2007, published 2010).

The experiment concerns rats with inflammatory condition associated with polyarthritis. The experiment is described as follows: Therapeutic effectiveness in rats with polyarthritis induced by heat-killed Mycobacterium tuberculosis. Format: in vivo. The settings on record: therapeutically effective amount, injection 1 to 5 times a day for 3-10 days, polyarthritic rats.

In the case of calcium glycerophosphate [CGP], the “reduction of the overall arthritis score” value was “at least 20%”.
